Results published in US11976092B2, “RNA nanostructures, methods of making, and uses thereof” (Ohio State Innovation Foundation, priority 2018, dated 2024).

Columns and labels:
KB cells = assay: FITC Annexin V / PI apoptosis assay (FACS); type: cell-based, Human; details: 1 μM, 48 hr treatment
Experimental: FITC Annexin V Apoptosis Detection Kit (BD Pharmingen) and Caspase-3 Assay Kit (BD Pharmingen) were used as previously reported to study cell apoptosis induced by pRNA-3WJ-PTX micelle treatment. For FITC Annexin V staining assay, KB cells were seeded in 12-well plates overnight. […] The controls include Paclitaxel, pRNA-3WJ micelles, and pRNA-3WJ. According to manufacturer instructions, 48 hr after incubation with the RNA micelles, KB cells were trypsinized to single cell suspension. After two PBS washes, the cells were resuspended in 100 μL 1× Annexin V-FITC binding buffer. Then 5 μL AnnexinV-FITC and 5 μL propidium iodide (PI) were added into each sample and incubated at room temperature for 25 min. The samples were finally added to a flow tube which contained 200 μL 1× binding buffer for FACS analysis within 1 hr.

[1] = Apparent hydrodynamic diameter by DLS (Zetasizer nano-ZS); type: physicochemical; details: 25° C.
Description: The data was obtained from three independent measurements.

FIG. 31B = assay: FIG. 31B
Description: Table printed on a drawing sheet, FIG. 31B
The patent's description of the figure: FIGS. 31A and 31B show enzymatic stability of branched 3WJs modular RNA motifs. FIG. 31A. Serum degradation curve. FIG. 31B. Half life of 3WJs in 50% serum.
FIGS. 29A to 31B show design (FIGS. 29A and 29B), thermal stability (qPCR & TGGE, FIGS. 30A to 30C), and enzymatic stability (serum stability assay, FIGS. 31A and 31B) of branched 3WJs with different core and helix.

Question: What does the source list for “pRNA-3WJ: phi29 pRNA three-way junction scaffold of a3WJ, b3WJ, c3WJ (SEQ ID NO:16-18), without lipophilic and therapeutic modules (chain 1 UUGCCAUGUGUAUGUGGG; chain 2 CCCACAUACUUUGUUGAUCC; chain 3 GGAUCAAUCAUGGCAA; 2'-fluoro at CU, RNA at AG, backbone not given here)”?
Answer: cells undergoing apoptosis (KB cells): 3.7%; average hydrodynamic diameter [1]: 7.466±1.215 nm

Question: Which “t1/2” value (FIG. 31B) does the source give for “Phi29-Mod: 3WJ modular RNA motif, SEQ ID NOs:19-21 (chain 1 AUUCGCUGUGUGGUAGUG; chain 2 CACUACCACUUUGUCCUACG; chain 3 CGUAGGACCAGCGAAU; further chemistry not given here)” here?
Answer: 24 h
